This note sets out measurements from ChEMBL document CHEMBL1129883, “Synthesis and cytotoxicity of 5-deazaflavins containing o- and p-quinone moieties” (Bioorg Med Chem Lett, 1997).

For one assay, the system named is KB. As to the kind of experiment: In vitro cytotoxicity determined against human epidermoid carcinoma KB cells by MTT assay. The assay is classed as functional, cell-based.
The subject of the next assay is L1210. Nature of the assay: In vitro cytotoxicity determined against murine leukemia L1210 cells by MTT assay. In kind it is functional, cell-based. To be noted: Mus musculus. Background: Tetrazolium assays rely on reduction of a dye to a coloured formazan, in cell work by metabolically active cells.

pIC50: −log10 of the molar value.

By pIC50 is commonly meant the IC50 on a negative log10 scale, so that one unit is a factor of ten. Read a low pIC50 as a high IC50. As to `CCCCn1c2nc(=O)n(C)c(=O)c-2cc2c1C(=O)C(OC)=CC2=O`, the pIC50 was 6.05 in the assay on KB and 5.92 with L1210.
For `CCCCCCCCCCCCn1c2nc(=O)[nH]c(=O)c-2cc2c1C(=O)C(=O)c1ccccc1-2`, the pIC50 is 5.16 in the assay on KB and 5.52 in the assay on L1210.
Taken in the same sequence, the figures for `CCn1c2nc(=O)n(C)c(=O)c-2cc2c1C(=O)C(=O)c1ccccc1-2` were 6.52 and 7.00.
For `CCCCCCn1c2nc(=O)[nH]c(=O)c-2cc2c1C(=O)C(OC)=CC2=O` the same measures were 5.35 and 5.32.
For `CCCCCCCCn1c2nc(=O)n(C)c(=O)c-2cc2c1C(=O)C(OC)=CC2=O` the same measures were 5.24 and 6.40.
Turning to `CCCCCCCCCCCCn1c2nc(=O)[nH]c(=O)c-2cc2c1C(=O)C(OC)=CC2=O`, the negative-log IC50 (pIC50) was 4.90 in the assay with KB and 5.60 with L1210.
Regarding `CCn1c2nc(=O)n(C)c(=O)c-2cc2c3ccccc3cc(OC)c21`, the negative logarithm of the IC50 (pIC50) in the assay on KB and with L1210 was less than 4.30 throughout.
On to `CCCCCCCCn1c2nc(=O)n(C)c(=O)c-2cc2c1C(=O)C(=O)c1ccccc1-2`, for which the negative-log IC50 (pIC50) in the assay with KB is 5.77; in the assay on L1210 it was 6.40.
With `CCCCCCCCCCCCn1c2nc(=O)n(C)c(=O)c-2cc2c1C(=O)C(OC)=CC2=O`, the values for the pIC50 with KB and with L1210 were 5.74 and 7.00, respectively.
Take `CCCCCCCCn1c2nc(=O)[nH]c(=O)c-2cc2c1C(=O)C(OC)=CC2=O`: the pIC50 in the assay on KB was 5.82; in the assay with L1210, 5.36.
Regarding `CCCCn1c2nc(=O)[nH]c(=O)c-2cc2c1C(=O)C(=O)c1ccccc1-2`, the negative logarithm of the IC50 (pIC50) was 5.28 in the assay on KB and 5.68 with L1210.
Taken in the same sequence, the figures for `CCCCn1c2nc(=O)n(-c3ccccc3)c(=O)c-2cc2c1C(=O)C(=O)c1ccccc1-2` were 4.55 and 5.31.
For `CCCCCCCCCCCCn1c2nc(=O)n(C)c(=O)c-2cc2ccccc21` the same measures were less than 4.30 and less than 4.30.
As to `CCCCCCCCCCCCn1c2nc(=O)n(C)c(=O)c-2cc2c1C(=O)C(=O)c1ccccc1-2`, the pIC50 was 6.70 in the assay on KB and 6.52 in the assay on L1210.
Taken in the same sequence, the figures for `CCCCCCn1c2nc(=O)n(C)c(=O)c-2cc2c1C(=O)C(=O)c1ccccc1-2` were 6.10 and 7.00.
Taken in the same sequence, the figures for `CCCCCCn1c2nc(=O)n(-c3ccccc3)c(=O)c-2cc2c1C(=O)C(OC)=CC2=O` were 6.40 and 5.89.
For `CCCCCCCCCCCCn1c2nc(=O)n(-c3ccccc3)c(=O)c-2cc2c1C(=O)C(OC)=CC2=O` the same measures were 6.52 and 5.57.
As for `CCCCn1c2nc(=O)n(C)c(=O)c-2cc2c1C(=O)C(=O)c1ccccc1-2`, the pIC50 with KB was 6.70; in the assay with L1210 it was 6.40.
For the compound `CCCCCCn1c2nc(=O)n(C)c(=O)c-2cc2c1C(=O)C(OC)=CC2=O`, the pIC50 in the assay on KB is 6.22; in the assay on L1210 it was 6.30.
`CCCCCCCCCCCCn1c2nc(=O)n(-c3ccccc3)c(=O)c-2cc2c1C(=O)C(=O)c1ccccc1-2`: the negative logarithm of the IC50 (pIC50) in the assay with KB is 4.75; in the assay with L1210, 5.55.
As to `CCCCCCCCn1c2nc(=O)[nH]c(=O)c-2cc2c1C(=O)C(=O)c1ccccc1-2`, the figures for the pIC50 in the assay with KB and in the assay with L1210 were 5.49 and 5.38, respectively.
Taken in the same sequence, the figures for `CCCCCCCCn1c2nc(=O)n(-c3ccccc3)c(=O)c-2cc2c1C(=O)C(=O)c1ccccc1-2` were 4.64 and 5.51.
For `CCCn1c2nc(=O)n(C)c(=O)c-2cc2c1C(=O)C(=O)c1ccccc1-2` the same measures were 5.92 and 6.15.
With `CCCCCCCCn1c2nc(=O)n(-c3ccccc3)c(=O)c-2cc2c1C(=O)C(OC)=CC2=O`, the pIC50 is 6.00 in the assay on KB and 5.74 in the assay on L1210.
